# Results: patent US20240226057A1, “NEW USE OF MONENSIN” (MAST PHARMA AB, priority 2021, published 2024)
# “Also recorded” adds a separate entry of the source.
# Key:
# MCs = assay: Intracellular calcium in MCs (Fluo-4/AM); format: cell-based
# Description: (§1) To assess cell death, cells were stained with Annexin V and either DRAQ7™ or Via-Probe™ Red Nucleic Acid Stain and analyzed by flow cytometry. To probe pH in acidic organelles, cells were incubated with LysoSensor Blue DND-167, followed by flow cytometry. The relative intracellular pH changes were assessed using the cell-permeable pH-sensitive fluorescent indicator (BCFL-AM). Intracellular calcium changes were assessed using Fluo-4/AM.
# [1] = tested on: immature human mast cell line HMC-1; assay: Cell death assessment in HMC-1 cells; format: cell-based; conditions: lower potency than for BMMCs and PCMCs
# Description: as §1
# (§2) Next, the inventors assessed if monensin is cytotoxic for human mast cells by assessing its effect on immature human mast cell lines (LUVA, HMC-1) and on fully mature skin mast cells (hskinMC).
# mast cells = conditions: cited from earlier work
# [2] = tested on: Bone marrow-derived mast cells (BMMCs); assay: Trypan blue positivity of treated mast cells; format: cell-based, mouse
# [3] = tested on: human primary airway epithelial cells (HSAEC); assay: Cytotoxicity against human primary airway epithelial cells (PrestoBlue); format: cell-based; conditions: 0.01-10 μM for 48 h; much less than on mast cells
# [4] = tested on: immature human mast cell line LUVA; assay: Cell death assessment in LUVA cells; format: cell-based; conditions: lower potency than for BMMCs and PCMCs
# Description: as §1, §2
# peritoneal eosinophils = assay: Mouse peritoneal lavage cells, viability by flow cytometry: eosinophils; format: cell-based; conditions: 0-10 μM for 24 h
# Description: Mouse peritoneal cells were treated with monensin and stained with labeled antibodies against CD117 (2B8), FcεRI (MAR-1), Siglec-F (E50-2440), CD11b (M1/70), F4/80 (BM8), CD3 (17A2), CD4 (GK1.5), CD8b (eBioH35-17.2) and CD19 (ebuo1D3).
# as §1
# To this end, monensin was added to cells recovered by peritoneal lavage of mice, followed by flow cytometry analysis to assess the effects of monensin on the various cell populations of the peritoneum.
# Peritoneal cell populations were recovered by peritoneal lavage of mice. The gating strategy to identify viable cells and to identify macrophages, lymphocytes, MCs and eosinophils within the peritoneal cell population is shown in (A). […] The panels show quantification of viable (Annexin V^−/Via-Probe^−) cells; in the MC (B), lymphocyte (C), macrophage (D) and eosinophil (E) populations (n=3).
# [5] = tested on: mouse bone-marrow-derived mast cells (BMMCs); assay: Annexin V/DRAQ7 cell death assessment in BMMCs; format: cell-based
# Description: as §1
# To analyze the mechanism by which monensin acts on mast cells, Annexin V/DRAQ7 staining was first adopted to assess the type of cell death induced by monensin, the gating is shown in FIG. 2A. […] Necrotic/late apoptotic (Annexin V^+/DRAQ7^+) cells were also seen, but to a lesser extent (right panel).
# BMMCs were treated with 1 μM monensin for 12 and 24 h, followed by Annexin V/DRAQ7 staining to measure cell death. MCs were gated into cells having high and low maturity, as assessed by SSC analysis for granularity (A). The right panels depict the quantification of apoptotic (Annexin V^+/DRAQ7^−) and necrotic (Annexin V^+/DRAQ7^+) cell death in the respective populations (n=3). (B) BMMCs (0.5×10^6 cells) were developed from WT (FIG. 4B) or serglycin^−/− (SG^−/−) mice (data not shown) and were treated with monensin 0-10 μM for 24 h, followed by cell death assessment (Annexin V/DRAQ7 staining). BMMCs (C; 0.5×10^6 cells) or human skin MCs (0.1×10^6 cells; D) were treated with monensin or bafilomycin A 0-10 μM for 30 min, followed by staining with LysoSensor Blue DND-167 (a lysosome probe sensitive to decreased pH) (n=4). BMMCs (0.5×10^6 cells) were treated with either monensin or bafilomycin A (20 nM) alone or in combination (E), followed by measurement of cell death (Annexin V/DRAQ7 staining). (F) BMMCs were treated with monensin or bafilomycin A for 4 and 24 h, followed by assessment of cytosolic pH (n=2). […] To further assess the impact of the secretory granules on monensin-induced cell death, it was evaluated whether the absence of serglycin, a granule-restricted proteoglycan, affects the response to monensin. Both WT and serglycin^−/− BMMCs were sensitive to cell death induced by monensin.
# mMCP-6 = assay: Translocation of granule protease mMCP-6 into the cytosolic fraction; format: cell-based
# [6] = tested on: human fibroblast cells (HFL-1)
# human lymphocytes = assay: Human peripheral blood-derived cells, viability: lymphocytes; format: cell-based
# Description: (§3) Mononuclear cells and granulocytes were purified from heparinized human peripheral blood. Cells were stained with antibodies against CD4 (RPA-T4), CD8 (RPA-T8), CD19 (HIB19) and CD14 (M5E2) or CCR3 (5E8) and CD15 (W6D3) for analysis of mononuclear cells and granulocytes, respectively.
# as §1
# (§4) To extend these findings into the corresponding human leukocyte populations, the inventors assessed the effects of monensin on eosinophils (B), human blood monocytes (C), lymphocytes (D), and neutrophils (E).
# human eosinophils = assay: Human peripheral blood-derived cells, viability: eosinophils; format: cell-based
# Description: as §3, §1, §4
# [7] = tested on: mast cells populating the tracheal tissue; assay: Histological analysis of tracheal segments (astra blue); design: species or system guinea pig; conditions: monensin-treated tracheal tissue
# Description: Double staining of control (D) and monensin-treated tracheal tissue (E, F) was performed with astra blue.
smiles,measurement,setting,value
"CC[C@]1([C@H]2O[C@H]([C@@H]3O[C@](O)(CO)[C@@H](C)C[C@H]3C)C[C@H]2C)CC[C@@H]([C@@]2(C)CC[C@@]3(C[C@@H](O)[C@H](C)[C@H]([C@H](C)[C@H](OC)[C@H](C)C(=O)O)O3)O2)O1 [Monensin, 4-[2-[5-ethyl-5-[5-[6-hydroxy-6-(hydroxymethyl)-3,5-dimethyl-oxan-2-yl]-3-methyl-oxolan-2-yl]oxolan-2-yl]-9-hydroxy-2,8-dimethyl-1,6-dioxaspiro[4.5]dec7-yl]-3-methoxy-2-methyl-pentanoic acid]",Cytosolic calcium,MCs,did not cause an increase
same,Cytotoxicity to HMC-1 cells,[1],cytotoxic
same,Histamine release on longer incubation,mast cells; 5 hr incubation with mast cells,potent secretagogue
same,Concentrations able to prevent histamine release from mast cells stimulated by secretagogues,mast cells; secretagogues such as calcium ionophore A23187,0.6 to 150 µg/mL
same,Viability % (TB) (10 μM),[2],12%
same,"Concentration from which a cytotoxic effect was exhibited, HSAEC",[3],≥ 1000 nM
same,Cytotoxicity to LUVA cells,[4],cytotoxic
same,Concentrations with substantial cell death of peritoneal eosinophils (down to),peritoneal eosinophils,≥ 10 nM
same,Type of cell death in serglycin−/− BMMCs,"[5]; 0-10 μM for 24 h, serglycin−/− BMMCs",predominantly Annexin V/DRAQ7 double-positive
same,Sensitivity of mast cells with high granularity versus low granularity,"[5]; 1 μM, 12 and 24 h, SSC gating",markedly more sensitive
same,Type of cell death in WT BMMCs (Annexin V/DRAQ7),[5]; WT BMMCs,predominantly Annexin V single positivity; also recorded: predominantly apoptotic cell death
same,Translocation of mMCP-6 into the cytosolic fraction,mMCP-6,profound translocation
same,Cytotoxicity at 10 μM on HSFib (HFL-1) cells,[6],exhibited cytotoxicity
same,Viability of human lymphocytes,human lymphocytes,no reduction
same,Response of human eosinophils,human eosinophils,sensitive
same,Proportion of mast cells having a defined nucleus,[7],profound reduction
